One test concerns A549-DR cells. Description: MTT cell viability assay with or without DOX. The format is cell-based, human. Conditions: DOX 1 μM, 72 hours, FIG. 7 upper. On the procedure: Human lung adenocarcinoma cell line A549 was obtained from the American Type Cell Culture (ATCC, USA). Cell culture was carried out at 37° C. in an atmosphere of 5% CO2 using Dulbecco's Modified Eagle's Medium (DMEM) (SIGMA) supplemented with fetal bovine serum (at a final concentration of 10%), penicillin (at a final concentration of 100 U/mL) and streptomycin (at a final concentration of 100 μg/mL). A549 cells were cultured at 37° C. in an atmosphere of 5% CO2, in DMEM in which the DOX concentration was increased stepwise from 0.01 to 1 μM, and then cells acquiring DOX resistance were selected to generate a DOX-resistant A549 cell line (A549-DR). The resultant A549-DR cells maintained their drug resistance by exposure to 1 μM DOX.
A549-DS, A549-DR, and A549-DR-IL-34-KO cells were cultured in DMEM medium with or without DOX (at a final concentration of 1 μM). After 72 hours of culturing, an MTT assay was performed (using a cell proliferation determination kit, available from Roche Applied) to determine the viability of cells. Similarly, A549-DR cells were cultured in a medium with or without DOX in which an anti-IL-34 neutralizing antibody was added at a final concentration of 0.01 to 10 μg/mL, and the viability of cells was determined in a similar way.
For orientation: Tetrazolium assays rely on reduction of a dye to a coloured formazan, in cell work by metabolically active cells.

The subject of the next test is A549-DR-IL-34-KO tumor. Description: Tumor size in humanized NOG mice with DOX administration. The format is in vivo. As to conditions: DOX 10 mg/kg/mouse intravenously, twice a week, 4 times, vs PBS, FIG. 8.
The test system of another test is A549-DR tumor. The description is as above. The format is in vivo. Conditions: DOX 10 mg/kg/mouse intravenously, twice a week, 4 times, vs PBS, FIG. 8.
A further test has as its system A549-DR-IL-34-KO cells. Description: MTT cell viability assay with or without DOX. Conditions: DOX 1 μM, 72 hours, FIG. 7 upper. The format is cell-based, human.

`COc1cccc2c1C(=O)c1c(O)c3c(c(O)c1C2=O)C[C@@](O)(C(=O)CO)C[C@@H]3O[C@H]1C[C@H](N)[C@H](O)[C@H](C)O1` [DOX, doxorubicin]: the viability of cells entry with A549-DR cells is “did not have a decreased viability”. Also, the tumor size result is given as “significantly decreased” with A549-DR-IL-34-KO tumor and “did not change greatly” in the test on A549-DR tumor. The “viability of cells (sensitivity to DOX)” value with A549-DR-IL-34-KO cells is recorded as “restored the sensitivity to DOX”.

The values are drawn from US20180193453A1, “TREATMENT-RESISTANCE REDUCING AGENT FOR TREATMENT-RESISTANT CANCER” (NATIONAL UNIVERSITY CORPORATION HOKKAIDO UNIVERSITY, priority 2015, published 2018).
